Data taken from PubChem BioAssay (NCI).
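Grown in 96-well plates, cells were treated for 48 hours with each compound at five concentrations. Insufficient inhibition: endpoint recorded as highest concentration tested. Definition used: TGI = concentration required for complete inhibition of growth.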

Test system: HS 578T breast
Assay: growth of human tumour cells (NCI), 48 h

SMILES | TGI [µM]
Cc1c(/C=N/NC(=S)N2CCCCC2)c(=O)n(-c2ccccc2)n1C | > 100
CCSC1=N/C(=C\c2ccco2)C(=O)N1 | > 100

Test system: M14 melanoma
Assay: growth of human tumour cells (NCI), 48 h

SMILES | TGI [µM]
CCOC(=O)C1=C(OC(OCC)C(CC)[Se]c2ccccc2)CCC1 (configuration not stated) | 31.6
CCCc1cc(OC(=O)c2c(O)cc(OC)cc2CCC)cc(O)c1C(=O)O | 73.7
Cc1ccc(-c2cc(-c3ccccc3)c(C#N)c(=O)[nH]2)cc1 | > 100
O=[N+]([O-])c1ccc(-c2nn3c(C45CC6CC(CC(C6)C4)C5)nnc3s2)c(Cl)c1 | > 100
O=[N+]([O-])c1cccc(Nc2nc(Cl)nc(Cl)n2)c1 | > 100
CC(Cn1c2c(c3cc(O)ccc31)CCc1ccc(O)cc1-2)N(C)C (configuration not stated) | 28.8
O=C(Cn1c2ccc(Br)cc2c2nc3ccccc3nc21)Nc1ccccc1 | > 100
Cc1cc(O)c(/C=N/C(=S)Nc2ccc(S(N)(=O)=O)cc2)c(=O)o1 | > 100
COc1ccc(-c2nc(-c3cnccn3)n(C3OC(CO)C(O)C3O)n2)cc1 (configuration not stated) | > 10
CC(=O)[C@H]1[C@H](O)C[C@@]2(C)[C@@H]3CCc4cc(O)c(OC5OC(CO)C(O)C(O)C5O)cc4C3(C)C(=O)C[C@]12C (some centres not stated) | > 100
O=C(NCCN1CCCCC1)c1cccc(I)c1 | > 100
COC(=O)[C@@](NC(=O)OCc1ccccc1)([C@H](C)O)C(F)(F)F | > 100
CO/C(=N\N=C\c1ccc(Cl)c(Cl)c1)c1ccncc1 | > 10
O=c1[nH][nH]c(=O)c2c1ccc1oc3ccccc3c12 | > 100
COC(=O)/C=C(\C)CCC1SC1(C)C (configuration not stated) | > 100
C=C1C2=C(CCCC2)C(=O)OC12CCCCC2 | > 100
COc1cc(OC)c2c(=O)c3cccc(C)c3n(C)c2c1 | > 100
COC(=O)C(=O)C(C(=O)C(=O)Nc1ccc(C)cc1C)c1nc2ccc(Cl)cc2[nH]c1=O (configuration not stated) | > 100
CC1=CCC(C(C)(C)NC(=O)c2ccccc2)C/C1=N/O (configuration not stated) | > 100
Cc1c(/C=N/NC(=S)N2CCCCC2)c(=O)n(-c2ccccc2)n1C | > 100
CCSC1=N/C(=C\c2ccco2)C(=O)N1 | > 100
CCOC(=O)CCC(NC(=O)c1ccc(NC(OC)c2nc3cc(C(F)(F)F)ccc3nc2-c2ccccc2)cc1)C(=O)OCC (configuration not stated) | 29
CCCCOC/N=C(/N)NC#N | > 100
C[C@@H]1CC[C@@H]2[C@@H](C1)O[C@@H]([C@@H](C)OCc1ccccc1)SC2(C)C | 37.7
Cc1sc2nc3n(c(=O)c2c1C)N=CN(c1ccc(Cl)cc1)C3 | > 100
COc1ccc2[nH]c3c(c2c1)[C@H]1CCC(C(C)(C)C)C[C@H]1[C@H]1C(=O)N(c2ccccc2)C(=O)[C@@H]31 (some centres not stated) | 30.6
COc1cc(C2c3cc4c(cc3C(=O)C3CCC(=O)N32)OCO4)cc(OC)c1O (configuration not stated) | > 50

Test system: MOLT-4 leukemia
Assay: growth of human tumour cells (NCI), 48 h

SMILES | TGI [µM]
CCOC(=O)C1=C(OC(OCC)C(CC)[Se]c2ccccc2)CCC1 (configuration not stated) | 73.5
CCCc1cc(OC(=O)c2c(O)cc(OC)cc2CCC)cc(O)c1C(=O)O | 84.2
Cc1ccc(-c2cc(-c3ccccc3)c(C#N)c(=O)[nH]2)cc1 | > 100
O=[N+]([O-])c1ccc(-c2nn3c(C45CC6CC(CC(C6)C4)C5)nnc3s2)c(Cl)c1 | > 100
O=[N+]([O-])c1cccc(Nc2nc(Cl)nc(Cl)n2)c1 | > 100
CC(Cn1c2c(c3cc(O)ccc31)CCc1ccc(O)cc1-2)N(C)C (configuration not stated) | > 100
O=C(Cn1c2ccc(Br)cc2c2nc3ccccc3nc21)Nc1ccccc1 | > 100
Cc1cc(O)c(/C=N/C(=S)Nc2ccc(S(N)(=O)=O)cc2)c(=O)o1 | > 100
COc1ccc(-c2nc(-c3cnccn3)n(C3OC(CO)C(O)C3O)n2)cc1 (configuration not stated) | > 10
CC(=O)[C@H]1[C@H](O)C[C@@]2(C)[C@@H]3CCc4cc(O)c(OC5OC(CO)C(O)C(O)C5O)cc4C3(C)C(=O)C[C@]12C (some centres not stated) | > 100
O=C(NCCN1CCCCC1)c1cccc(I)c1 | > 100
COC(=O)[C@@](NC(=O)OCc1ccccc1)([C@H](C)O)C(F)(F)F | > 100
CO/C(=N\N=C\c1ccc(Cl)c(Cl)c1)c1ccncc1 | > 10
O=c1[nH][nH]c(=O)c2c1ccc1oc3ccccc3c12 | > 100
COC(=O)/C=C(\C)CCC1SC1(C)C (configuration not stated) | > 100
C=C1C2=C(CCCC2)C(=O)OC12CCCCC2 | > 100
COc1cc(OC)c2c(=O)c3cccc(C)c3n(C)c2c1 | > 100
COC(=O)C(=O)C(C(=O)C(=O)Nc1ccc(C)cc1C)c1nc2ccc(Cl)cc2[nH]c1=O (configuration not stated) | > 100
CC1=CCC(C(C)(C)NC(=O)c2ccccc2)C/C1=N/O (configuration not stated) | > 100
Cc1c(/C=N/NC(=S)N2CCCCC2)c(=O)n(-c2ccccc2)n1C | > 100
CCSC1=N/C(=C\c2ccco2)C(=O)N1 | > 100
COc1ccc(-c2nc(Nc3ccccc3)sc2Cc2sc(Nc3ccccc3)nc2-c2ccc(OC)cc2)cc1 | > 100
CCOC(=O)CCC(NC(=O)c1ccc(NC(OC)c2nc3cc(C(F)(F)F)ccc3nc2-c2ccccc2)cc1)C(=O)OCC (configuration not stated) | > 24.1
CCCCOC/N=C(/N)NC#N | > 100
C[C@@H]1CC[C@@H]2[C@@H](C1)O[C@@H]([C@@H](C)OCc1ccccc1)SC2(C)C | 32.3
Cc1sc2nc3n(c(=O)c2c1C)N=CN(c1ccc(Cl)cc1)C3 | > 100
COc1ccc2[nH]c3c(c2c1)[C@H]1CCC(C(C)(C)C)C[C@H]1[C@H]1C(=O)N(c2ccccc2)C(=O)[C@@H]31 (some centres not stated) | > 71.2
COc1cc(C2c3cc4c(cc3C(=O)C3CCC(=O)N32)OCO4)cc(OC)c1O (configuration not stated) | > 50
